Results from US7014844B2, “Lightening compositions and methods of use” (Avon Products, Inc., priority 2001, dated 2006).

Tests used:
DOPAchrome tautomerase = target: T1, DOPAchrome tautomerase (Mus musculus, UniProt P29812); experiment: DOPAchrome tautomerase (DCT) assay; format: biochemical; details: 0.05 wt %; cell extract; phenylthiourea 1 mM; 475 nm
T1 construct: DCT was assayed spectrophotometrically by adding up to 0.1 ml cell extract; endogenous in cells
Experimental: DOPAchrome tautomerase (DCT) activity was assayed according to the method disclosed in Chakraborty et al., 1998, Effect of arbutin on melanogenic proteins in human melanocytes, Pigment Cell Res. 11: 206–212. Specifically, ice-cold DOPA (0.5 mg per ml of 0.1 M sodium phosphate buffer, pH 6.8) was mixed with Ag2O (30 mg Ag2O: 1 mg DOPA) for about 1 minute and filtered through a 0.22 μm Millipore filter. DCT was assayed spectrophotometrically by adding up to 0.1 ml cell extract to 0.5 ml of a solution of freshly prepared DOPAchrome (˜0.5 mg/ml). Reactions were carried out at room temperature in plastic cuvettes, and the disappearance of absorption at 475 nm was followed. Phenylthiourea (1 mM) was added to the reaction mixture, because the presence of tyrosinase in the cell extract can interfere with the assay. The percentage conversion of DOPAchrome was calculated per mg of protein extract and normalized against the control.

[1] = tested on: Reconstituted Human Epidermis (keratinocytes and Type IV melanocytes); experiment: Reconstructed Pigmented Epidermal Tissue Assay; format: cell-based; details: 0.1 wt %; treated 14 days; absorbance at 490 nm
Experimental: A composition containing 0.1 wt % N, N, S (tris) carboxylmethyl cysteamine was tested in a Reconstructed Pigmented Epidermal Tissue Assay. Reconstituted Human Epidermis (tissue) consisting of keratinocytes and Type IV (Fitzpatrick scale) melanocytes (Skin Ethic, France) were grown in maintenance medium obtained from the tissue supplier. This model consists of melanocytes and keratinocytes and the pigmentation of the skin-equivalent is due to melanin. The tissue remained viable through the course of the experimental treatment and actively synthesized and transferred melanin. The skin equivalents were treated for 14 days with the active materials of the present invention and a measure of melanin was obtained by measuring absorbance of the tissue at 490 nm. All studies were conducted in 6-well tissue culture dishes (Falcon), at 37° C. and 5% CO2. All test articles were dissolved in medium. Tissues were fed 1 ml of medium with the active material or medium alone was used as the control. […] After 14 days the tissues were transferred to a 24-well tissue culture dish (Falcon), and pigmentation was assessed using a Packard microplate reader at 490 nm. […] A control baseline reading had been taken on day 2 after the models had equilibrated and used as a baseline tissue pigmentation value. The baseline reading was subtracted from the final readings to eliminate inherent absorbance by the tissue. […]

tyrosinase = target: T2, tyrosinase (Mus musculus, UniProt P11344); experiment: Tyrosinase assay; format: biochemical; details: 0.05 wt %; mouse melanoma cell extract; DOPA substrate; 475 nm
T2 construct: Tyrosinase was assayed spectrophotometrically by adding up to 0.1 ml cell extract; endogenous in cells
T2 sequence (P11344 19-533): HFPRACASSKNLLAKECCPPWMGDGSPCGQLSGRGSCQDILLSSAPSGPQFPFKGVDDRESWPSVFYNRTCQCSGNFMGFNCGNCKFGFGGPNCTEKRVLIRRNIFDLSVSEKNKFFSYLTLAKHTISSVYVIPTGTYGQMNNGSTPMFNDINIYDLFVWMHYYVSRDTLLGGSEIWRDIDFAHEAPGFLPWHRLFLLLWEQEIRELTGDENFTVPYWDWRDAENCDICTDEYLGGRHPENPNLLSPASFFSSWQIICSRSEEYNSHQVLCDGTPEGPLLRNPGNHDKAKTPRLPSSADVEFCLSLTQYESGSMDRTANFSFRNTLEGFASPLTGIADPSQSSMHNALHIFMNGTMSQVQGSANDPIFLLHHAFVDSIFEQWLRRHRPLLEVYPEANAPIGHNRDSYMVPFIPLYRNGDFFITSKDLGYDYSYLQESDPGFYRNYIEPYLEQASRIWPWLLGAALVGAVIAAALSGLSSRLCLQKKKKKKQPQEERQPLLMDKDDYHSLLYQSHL
Experimental: A tyrosinase assay was performed according to the method outlined in Chakraborty et al., 1989, Melanogenic regulatory factors in coated vesicles from melanoma cells, J. Invest. Dermatol. 93: 616–620. Specifically, mouse melanoma cells were dissolved with the addition of 0.1 M sodium phosphate buffer, pH 6.8, containing Triton X-100 (1% vol/vol), at a ratio of 1-5×10^6 cells/ml. After 10 minutes on ice, the extracts were centrifuged at 4° C. (10,000 g, for 10 minutes) and the supernatant fractions were assayed for tyrosinase. Tyrosinase was assayed spectrophotometrically by adding up to 0.1 ml cell extract to 0.2 ml of a solution of freshly prepared DOPA (˜0.5 mg/ml), in a total volume of 0.5 ml of 0.1 M sodium phosphate buffer, pH 6.8. Reactions were carried out at 37° C. in plastic cuvettes, and the appearance of absorption at 475 nm was followed.

DHICA polymerase = DHICA polymerase assay; format: biochemical; details: 0.05 wt %; wheat germ agglutinin eluate; 4 hours; 400 nm
Experimental: A DHICA polymerase assay was performed according to the method disclosed in Chakraborty et al., 1996, Polymerization of 5, 6-dihydroxyindole-2-Carboxylic acid to melanin by the pmell7/silver locus protein, Eur. J. Biochem. 236: 180–188. Specifically, the cell extract (0.5 ml, 150–200 μg protein) was passed through a wheat germ agglutinin column (1 ml bed volume) equilibrated with lysis buffer. The bound material was eluted with 0.5 ml 1M N-acetyl glucosamine, which contains crude DHICA polymerization factor and other melanogenic proteins. A reaction mixture of 0.5 ml containing either the enzyme preparation to be measured (20 μg protein from wheat germ agglutinin eluates) or the appropriate buffer blank, DHICA (0.5 mM), and 100 mM sodium phosphate buffer, pH 7.0. Phenylthiourea was also included to inhibit endogenous tyrosinase activity in the preparation.
Spectrophotomeric reading of the absorbance of the reaction mixture was taken at T=0 and T=4 hours time points at 400 nm. […] An increase in absorbance over that seen in blank tubes was defined as specific DHICA polymerization factor activity.

T1 sequence (P29812 24-517): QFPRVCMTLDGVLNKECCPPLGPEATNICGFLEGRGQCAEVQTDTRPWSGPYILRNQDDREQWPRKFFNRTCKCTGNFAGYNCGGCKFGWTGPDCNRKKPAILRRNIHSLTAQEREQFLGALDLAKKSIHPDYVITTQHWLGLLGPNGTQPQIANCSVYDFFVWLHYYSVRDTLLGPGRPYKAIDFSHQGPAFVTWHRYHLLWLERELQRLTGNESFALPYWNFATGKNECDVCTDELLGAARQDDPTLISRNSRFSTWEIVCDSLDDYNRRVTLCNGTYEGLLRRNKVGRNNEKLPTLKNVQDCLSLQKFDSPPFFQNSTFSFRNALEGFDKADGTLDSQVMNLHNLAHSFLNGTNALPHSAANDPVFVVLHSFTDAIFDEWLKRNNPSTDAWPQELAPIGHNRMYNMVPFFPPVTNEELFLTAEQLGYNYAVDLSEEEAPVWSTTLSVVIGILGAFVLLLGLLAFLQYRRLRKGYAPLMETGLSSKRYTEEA

O=C(O)CSCCN(CC(=O)O)CC(=O)O [N, N, S (tris) carboxylmethyl cysteamine]
average decrease in DOPAchrome conversion as compared to the control (DOPAchrome tautomerase): 65%
reduction of reconstructed epidermal tissue pigmentation in comparison to control tissue [1]: about 40%
average decrease in tyrosinase conversion as compared to the control (tyrosinase): 36%
average decrease in DHICA Polymerase conversion compared to the control (DHICA polymerase): 58%
